The source made the active and inactive calls. The rule behind the calls is not given here.
Tested on: CCRIS mutagenicity, Ames/micronucleus/aberration tests
Test: CCRIS mutagenicity studies
[1] = Test System: AMES SALMONELLA TYPHIMURIUM, Strain/Indicator: TA98, Metabolic Activation: RAT, LIVER, S-9, AROCLOR 1254, Method: STANDARD PLATE
[2] = Test System: AMES SALMONELLA TYPHIMURIUM, Strain/Indicator: TA100, Metabolic Activation: NONE, Method: STANDARD PLATE
[3] = Test System: AMES SALMONELLA TYPHIMURIUM, Strain/Indicator: TA100, Metabolic Activation: RAT, LIVER, S-9, AROCLOR 1254, Method: STANDARD PLATE
[4] = Test System: AMES SALMONELLA TYPHIMURIUM, Strain/Indicator: TA1535, Metabolic Activation: NONE, Method: STANDARD PLATE
[5] = Test System: AMES SALMONELLA TYPHIMURIUM, Strain/Indicator: TA1537, Metabolic Activation: NONE, Method: STANDARD PLATE
[6] = Test System: AMES SALMONELLA TYPHIMURIUM, Strain/Indicator: TA1537, Metabolic Activation: RAT, LIVER, S-9, AROCLOR 1254, Method: STANDARD PLATE
[7] = Test System: AMES SALMONELLA TYPHIMURIUM, Strain/Indicator: TA98, Metabolic Activation: NONE, Method: STANDARD PLATE

Nc1ccc(Cl)c(N)c1
mutagenic call (End Point: IN VITRO CHROMOSOMAL ABERRATIONS, Test System: CHL CELLS, Metabolic Activation: RAT, LIVER, S-9, SODIUM PHENOBARBITAL AND 5,6-BENZOFLAVONE): active; positive (structural changes)
mutagenic call (End Point: IN VITRO CHROMOSOMAL ABERRATIONS, Test System: CHO-LB CELLS, Metabolic Activation: RAT, LIVER, S-9, AROCLOR 1254): inactive; negative
mutagenic call (Test System: AMES SALMONELLA TYPHIMURIUM, Strain/Indicator: TA98, Metabolic Activation: HAMSTER, LIVER, S-9, AROCLOR 1254, Method: STANDARD PLATE): active; positive
mutagenic call (Test System: AMES SALMONELLA TYPHIMURIUM, Strain/Indicator: TA98, Metabolic Activation: HAMSTER, LIVER, S-9, Method: STANDARD PLATE): active; positive
mutagenic call (Test System: AMES SALMONELLA TYPHIMURIUM, Strain/Indicator: TA98, Metabolic Activation: MOUSE, LIVER, S-9, AROCLOR 1254, Method: STANDARD PLATE): active; positive
mutagenic call (Test System: AMES SALMONELLA TYPHIMURIUM, Strain/Indicator: TA98, Metabolic Activation: MOUSE, LIVER, S-9, Method: STANDARD PLATE): active; positive
mutagenic call [1]: active; positive
mutagenic call (Test System: AMES SALMONELLA TYPHIMURIUM, Strain/Indicator: TA98, Metabolic Activation: RAT, LIVER, S-9, Method: STANDARD PLATE): active; positive
mutagenic call (Test System: AMES SALMONELLA TYPHIMURIUM, Strain/Indicator: TA100, Metabolic Activation: HAMSTER, LIVER, S-9, AROCLOR 1254, Method: STANDARD PLATE): active; positive
mutagenic call [2]: inactive; negative
mutagenic call [3]: active; positive
mutagenic call (Test System: AMES SALMONELLA TYPHIMURIUM, Strain/Indicator: TA1535, Metabolic Activation: HAMSTER, LIVER, S-9, AROCLOR 1254, Method: STANDARD PLATE): inactive; negative
mutagenic call (Test System: AMES SALMONELLA TYPHIMURIUM, Strain/Indicator: TA1535, Metabolic Activation: HAMSTER, LIVER, S-9, Method: STANDARD PLATE): inactive; negative
mutagenic call (Test System: AMES SALMONELLA TYPHIMURIUM, Strain/Indicator: TA1535, Metabolic Activation: MOUSE, LIVER, S-9, AROCLOR 1254, Method: STANDARD PLATE): inactive; negative
mutagenic call (Test System: AMES SALMONELLA TYPHIMURIUM, Strain/Indicator: TA1535, Metabolic Activation: MOUSE, LIVER, S-9, Method: STANDARD PLATE): inactive; negative
mutagenic call [4]: inactive; negative
mutagenic call (Test System: AMES SALMONELLA TYPHIMURIUM, Strain/Indicator: TA1535, Metabolic Activation: RAT, LIVER, S-9, Method: STANDARD PLATE): inactive; negative
mutagenic call (Test System: AMES SALMONELLA TYPHIMURIUM, Strain/Indicator: TA1537, Metabolic Activation: HAMSTER, LIVER, S-9, AROCLOR 1254, Method: STANDARD PLATE): active; positive
mutagenic call (Test System: AMES SALMONELLA TYPHIMURIUM, Strain/Indicator: TA1537, Metabolic Activation: HAMSTER, LIVER, S-9, Method: STANDARD PLATE): active; positive
mutagenic call (Test System: AMES SALMONELLA TYPHIMURIUM, Strain/Indicator: TA1537, Metabolic Activation: MOUSE, LIVER, S-9, AROCLOR 1254, Method: STANDARD PLATE): active; positive
mutagenic call [5]: inactive; negative
mutagenic call [6]: active; positive
mutagenic call (Test System: AMES SALMONELLA TYPHIMURIUM, Strain/Indicator: TA1537, Metabolic Activation: RAT, LIVER, S-9, Method: STANDARD PLATE): inactive; negative
mutagenic call (Test System: AMES SALMONELLA TYPHIMURIUM, Strain/Indicator: TA1538, Metabolic Activation: HAMSTER, LIVER, S-9, AROCLOR 1254, Method: STANDARD PLATE): active; positive
mutagenic call (Test System: AMES SALMONELLA TYPHIMURIUM, Strain/Indicator: TA1538, Metabolic Activation: HAMSTER, LIVER, S-9, Method: STANDARD PLATE): active; positive
mutagenic call (Test System: AMES SALMONELLA TYPHIMURIUM, Strain/Indicator: TA1538, Metabolic Activation: MOUSE, LIVER, S-9, AROCLOR 1254, Method: STANDARD PLATE): active; positive
mutagenic call (Test System: AMES SALMONELLA TYPHIMURIUM, Strain/Indicator: TA1538, Metabolic Activation: MOUSE, LIVER, S-9, Method: STANDARD PLATE): active; positive
mutagenic call (Test System: AMES SALMONELLA TYPHIMURIUM, Strain/Indicator: TA1538, Metabolic Activation: RAT, LIVER, S-9, AROCLOR 1254, Method: STANDARD PLATE): active; positive
mutagenic call (Test System: AMES SALMONELLA TYPHIMURIUM, Strain/Indicator: TA1538, Metabolic Activation: RAT, LIVER, S-9, Method: STANDARD PLATE): active; positive
mutagenic call (Test System: E. COLI, Strain/Indicator: WP2 UVRA, Metabolic Activation: HAMSTER, LIVER, S-9, AROCLOR 1254, Method: STANDARD PLATE): inactive; negative
mutagenic call (Test System: E. COLI, Strain/Indicator: WP2 UVRA, Metabolic Activation: HAMSTER, LIVER, S-9, Method: STANDARD PLATE): inactive; negative
mutagenic call (Test System: E. COLI, Strain/Indicator: WP2 UVRA, Metabolic Activation: MOUSE, LIVER, S-9, AROCLOR 1254, Method: STANDARD PLATE): inactive; negative
mutagenic call (Test System: E. COLI, Strain/Indicator: WP2 UVRA, Metabolic Activation: MOUSE, LIVER, S-9, Method: STANDARD PLATE): inactive; negative
mutagenic call (Test System: E. COLI, Strain/Indicator: WP2 UVRA, Metabolic Activation: NONE, Method: STANDARD PLATE): inactive; negative
mutagenic call (Test System: E. COLI, Strain/Indicator: WP2 UVRA, Metabolic Activation: RAT, LIVER, S-9, AROCLOR 1254, Method: STANDARD PLATE): inactive; negative
mutagenic call (Test System: E. COLI, Strain/Indicator: WP2 UVRA, Metabolic Activation: RAT, LIVER, S-9, Method: STANDARD PLATE): inactive; negative

CN1CCN(C2=Nc3cc(Cl)ccc3Nc3ccccc32)CC1
mutagenic call [7]: inactive; negative
mutagenic call [1]: inactive; negative
mutagenic call [2]: inactive; negative
mutagenic call [3]: inactive; negative
mutagenic call [4]: inactive; negative
mutagenic call (Test System: AMES SALMONELLA TYPHIMURIUM, Strain/Indicator: TA1535, Metabolic Activation: RAT, LIVER, S-9, AROCLOR 1254, Method: STANDARD PLATE): inactive; negative
mutagenic call [5]: inactive; negative
mutagenic call [6]: inactive; negative

CC1(C)CC2=C(C=O)[C@@]3(C=O)C[C@@]3(C)[C@@H](O)[C@@H]2C1
mutagenic call [7]: active; positive
mutagenic call [2]: active; positive
mutagenic call (Test System: CHINESE HAMSTER V-79, Strain/Indicator: V-79/6-THIOGUANINE (HGPRT), Metabolic Activation: NONE): inactive; negative

— PubChem BioAssay AID1259407 (Chemical Carcinogenesis Research Information System (CCRIS), 2018)
